In the experiment the test system is cotton aphids (Aphis gossypii). The experiment is described as follows: Test Method 9: foliar spray on cucumber seedling infested with cotton aphids (Formulation Example 5). The format is in vivo. As to conditions: Test Example 9-1; 200 ppm; 5 days after spraying. As for the experimental part:
Cucumber (Cucumis sativus) seedling (on the developmental stage of the second true leaf) is planted in a container and approximately 30 cotton aphids (Aphis gossypii) (all developmental stages of life) are released onto the leaves of the cucumber. After 1 day, the diluted solutions are sprayed to the seedling at a ratio of 10 mL/seedling. Further, after 5 days, the number of the surviving insects is examined and the controlling value is calculated by the following equation. Controlling value (%)={1−(Cb×Tai)/(Cai×Tb)}×100 wherein the symbols in the formula represent the following descriptions. • Cb: Number of the test insects in untreated group; • Cai: Number of the surviving insects at the time of the investigation in untreated group; • Tb: Number of the test insects in treated group; • Tai: Number of the surviving insects at the time of the investigation in treated group; Here the “untreated group” represents a group where the similar treatment procedure to that of the treated group except not using the test compound is done.

Bounds are passed on as bounds.

As for `CCS(=O)(=O)c1c(-c2cnc3cc(C(F)(F)F)ccn3c2=O)nc2cc(C(F)(F)F)ccn12` [compound 6], the Controlling value is listed as ≥ 90%.
